Data as given in the NIST ThermoML archive (doi:10.1021/acs.jced.5b00980).
Numbers after ± are expanded uncertainties.

Experiment: activity coefficient (dimensionless); of the first substance listed, at infinite dilution; xn = mol fraction of the nth substance listed
Details: 100 kPa, Liquid, Chromatography, x1 = 0

| SMILES | activity coefficient (328.15 K) | activity coefficient (338.15 K) | activity coefficient (348.15 K) | activity coefficient (358.15 K) | activity coefficient (368.15 K) |
| --- | --- | --- | --- | --- | --- |
| Cc1ccccc1C [1,2-dimethylbenzene] + CCCC[P+](CC)(CCCC)CCCC.CCOP(=O)([O-])OCC | 1.55 ± 0.1 | 1.52 ± 0.1 | 1.5 ± 0.1 | 1.47 ± 0.1 | 1.45 ± 0.1 |
| Cc1cccc(C)c1 [1,3-dimethylbenzene] + CCCC[P+](CC)(CCCC)CCCC.CCOP(=O)([O-])OCC | 1.7 ± 0.11 | 1.67 ± 0.11 | 1.64 ± 0.11 | 1.61 ± 0.11 | 1.59 ± 0.11 |
| Cc1ccc(C)cc1 [1,4-dimethylbenzene] + CCCC[P+](CC)(CCCC)CCCC.CCOP(=O)([O-])OCC | 1.64 ± 0.11 | 1.61 ± 0.11 | 1.59 ± 0.11 | 1.57 ± 0.1 | 1.55 ± 0.1 |
| C1COCCO1 [1,4-dioxane] + CCCC[P+](CC)(CCCC)CCCC.CCOP(=O)([O-])OCC | 1.08 ± 0.07 | 1.06 ± 0.07 | 1.05 ± 0.07 | 1.03 ± 0.06 | 1.02 ± 0.06 |
| C=CCCCCCCCC [1-decene] + CCCC[P+](CC)(CCCC)CCCC.CCOP(=O)([O-])OCC | 5.2 ± 0.35 | 5.06 ± 0.34 | 4.93 ± 0.34 | 4.81 ± 0.33 | 4.69 ± 0.32 |
| C=CCCCCC [1-heptene] + CCCC[P+](CC)(CCCC)CCCC.CCOP(=O)([O-])OCC | 3.06 ± 0.21 | 3.01 ± 0.2 | 2.97 ± 0.2 | 2.93 ± 0.2 | 2.89 ± 0.2 |
| C#CCCCCC [1-heptyne] + CCCC[P+](CC)(CCCC)CCCC.CCOP(=O)([O-])OCC | 1.01 ± 0.06 | 1.05 ± 0.07 | 1.09 ± 0.07 | 1.13 ± 0.07 | 1.17 ± 0.07 |
| C#CCCCC [1-hexyne] + CCCC[P+](CC)(CCCC)CCCC.CCOP(=O)([O-])OCC | 0.849 ± 0.054 | 0.893 ± 0.057 | 0.936 ± 0.059 | 0.979 ± 0.061 | 1.02 ± 0.06 |
| CCC[N+](=O)[O-] [1-nitropropane] + CCCC[P+](CC)(CCCC)CCCC.CCOP(=O)([O-])OCC | 0.499 ± 0.038 | 0.507 ± 0.038 | 0.515 ± 0.038 | 0.523 ± 0.039 | 0.53 ± 0.039 |
| C#CCCCCCC [1-octyne] + CCCC[P+](CC)(CCCC)CCCC.CCOP(=O)([O-])OCC | 1.17 ± 0.07 | 1.22 ± 0.08 | 1.28 ± 0.08 | 1.33 ± 0.09 | 1.38 ± 0.09 |
| C=CCCC [1-pentene] + CCCC[P+](CC)(CCCC)CCCC.CCOP(=O)([O-])OCC | 2.18 ± 0.15 | 2.15 ± 0.15 | 2.13 ± 0.14 | 2.11 ± 0.14 | 2.09 ± 0.14 |
| C#CCCC [1-pentyne] + CCCC[P+](CC)(CCCC)CCCC.CCOP(=O)([O-])OCC | 0.725 ± 0.048 | 0.762 ± 0.05 | 0.797 ± 0.052 | 0.833 ± 0.054 | 0.866 ± 0.055 |
| CC(C)CC(C)(C)C [2,2,4-trimethylpentane] + CCCC[P+](CC)(CCCC)CCCC.CCOP(=O)([O-])OCC | 4.38 ± 0.3 | 4.25 ± 0.29 | 4.15 ± 0.28 | 4.05 ± 0.28 | 3.97 ± 0.27 |
| CCC(C)(C)C [2,2-dimethylbutane] + CCCC[P+](CC)(CCCC)CCCC.CCOP(=O)([O-])OCC | 3.34 ± 0.23 | 3.27 ± 0.22 | 3.2 ± 0.22 | 3.14 ± 0.21 | 3.08 ± 0.21 |
| CCOC(C)(C)C [2-ethoxy-2-methylpropane] + CCCC[P+](CC)(CCCC)CCCC.CCOP(=O)([O-])OCC | 2.66 ± 0.18 | 2.6 ± 0.18 | 2.56 ± 0.17 | 2.51 ± 0.17 | 2.47 ± 0.17 |
| CCCCC(C)=O [2-hexanone] + CCCC[P+](CC)(CCCC)CCCC.CCOP(=O)([O-])OCC | 1.15 ± 0.07 | 1.15 ± 0.07 | 1.15 ± 0.07 | 1.15 ± 0.07 | 1.14 ± 0.07 |
| CCC(C)(C)OC [2-methoxy-2-methylbutane] + CCCC[P+](CC)(CCCC)CCCC.CCOP(=O)([O-])OCC | 2.09 ± 0.14 | 2.07 ± 0.14 | 2.05 ± 0.14 | 2.02 ± 0.14 | 2.01 ± 0.14 |
| COC(C)(C)C [2-methoxy-2-methylpropane] + CCCC[P+](CC)(CCCC)CCCC.CCOP(=O)([O-])OCC | 1.89 ± 0.13 | 1.86 ± 0.13 | 1.84 ± 0.12 | 1.82 ± 0.12 | 1.8 ± 0.12 |
| CCCC(=O)CC [3-hexanone] + CCCC[P+](CC)(CCCC)CCCC.CCOP(=O)([O-])OCC | 1.23 ± 0.08 | 1.21 ± 0.08 | 1.21 ± 0.08 | 1.2 ± 0.08 | 1.2 ± 0.08 |
| CCC(C)CC [3-methylpentane] + CCCC[P+](CC)(CCCC)CCCC.CCOP(=O)([O-])OCC | 3.17 ± 0.22 | 3.12 ± 0.21 | 3.07 ± 0.21 | 3.02 ± 0.21 | 2.98 ± 0.2 |

| SMILES | activity coefficient (328.15 K) | activity coefficient (338.15 K) | activity coefficient (348.15 K) | activity coefficient (358.15 K) | activity coefficient (368.15 K) |
| --- | --- | --- | --- | --- | --- |
| CC(C)=O [acetone] + CCCC[P+](CC)(CCCC)CCCC.CCOP(=O)([O-])OCC | 0.835 ± 0.054 | 0.827 ± 0.053 | 0.822 ± 0.053 | 0.814 ± 0.053 | 0.809 ± 0.052 |
| CC#N [acetonitrile] + CCCC[P+](CC)(CCCC)CCCC.CCOP(=O)([O-])OCC | 0.464 ± 0.036 | 0.465 ± 0.036 | 0.467 ± 0.036 | 0.468 ± 0.037 | 0.469 ± 0.037 |
| c1ccccc1 [benzene] + CCCC[P+](CC)(CCCC)CCCC.CCOP(=O)([O-])OCC | 0.871 ± 0.056 | 0.863 ± 0.055 | 0.855 ± 0.055 | 0.847 ± 0.054 | 0.84 ± 0.054 |
| C1CCCCCC1 [cycloheptane] + CCCC[P+](CC)(CCCC)CCCC.CCOP(=O)([O-])OCC | 2.48 ± 0.17 | 2.42 ± 0.16 | 2.37 ± 0.16 | 2.32 ± 0.16 | 2.27 ± 0.15 |
| C1CCCCC1 [cyclohexane] + CCCC[P+](CC)(CCCC)CCCC.CCOP(=O)([O-])OCC | 2.17 ± 0.15 | 2.13 ± 0.14 | 2.09 ± 0.14 | 2.05 ± 0.14 | 2.01 ± 0.14 |
| C1=CCCCC1 [cyclohexene] + CCCC[P+](CC)(CCCC)CCCC.CCOP(=O)([O-])OCC | 1.72 ± 0.12 | 1.69 ± 0.11 | 1.67 ± 0.11 | 1.65 ± 0.11 | 1.63 ± 0.11 |
| C1CCCCCCC1 [cyclooctane] + CCCC[P+](CC)(CCCC)CCCC.CCOP(=O)([O-])OCC | 2.82 ± 0.19 | 2.74 ± 0.19 | 2.69 ± 0.18 | 2.63 ± 0.18 | 2.57 ± 0.17 |
| C1CCCC1 [cyclopentane] + CCCC[P+](CC)(CCCC)CCCC.CCOP(=O)([O-])OCC | 1.83 ± 0.12 | 1.8 ± 0.12 | 1.77 ± 0.12 | 1.74 ± 0.12 | 1.71 ± 0.11 |
| CCCCCCCCCC [decane] + CCCC[P+](CC)(CCCC)CCCC.CCOP(=O)([O-])OCC | 7.01 ± 0.48 | 6.74 ± 0.46 | 6.49 ± 0.44 | 6.26 ± 0.43 | 6.05 ± 0.41 |
| CCOCC [diethyl ether] + CCCC[P+](CC)(CCCC)CCCC.CCOP(=O)([O-])OCC | 1.79 ± 0.12 | 1.77 ± 0.12 | 1.75 ± 0.12 | 1.73 ± 0.12 | 1.71 ± 0.11 |
| CC(C)OC(C)C [diisopropyl ether] + CCCC[P+](CC)(CCCC)CCCC.CCOP(=O)([O-])OCC | 2.82 ± 0.19 | 2.75 ± 0.19 | 2.69 ± 0.18 | 2.65 ± 0.18 | 2.59 ± 0.18 |
| CCCOCCC [dipropyl ether] + CCCC[P+](CC)(CCCC)CCCC.CCOP(=O)([O-])OCC | 2.59 ± 0.18 | 2.55 ± 0.17 | 2.51 ± 0.17 | 2.47 ± 0.17 | 2.43 ± 0.17 |
| CCO [ethanol] + CCCC[P+](CC)(CCCC)CCCC.CCOP(=O)([O-])OCC |  | 0.035 | 0.038 | 0.042 | 0.045 |
| CCc1ccccc1 [ethylbenzene] + CCCC[P+](CC)(CCCC)CCCC.CCOP(=O)([O-])OCC | 1.55 ± 0.1 | 1.52 ± 0.1 | 1.49 ± 0.1 | 1.46 ± 0.1 | 1.44 ± 0.09 |
| CCCCCCC [heptane] + CCCC[P+](CC)(CCCC)CCCC.CCOP(=O)([O-])OCC | 4.08 ± 0.28 | 3.97 ± 0.27 | 3.87 ± 0.26 | 3.78 ± 0.26 | 3.7 ± 0.25 |
| C=CCCCC [hex-1-ene] + CCCC[P+](CC)(CCCC)CCCC.CCOP(=O)([O-])OCC | 2.59 ± 0.18 | 2.54 ± 0.17 | 2.49 ± 0.17 | 2.44 ± 0.17 | 2.4 ± 0.16 |
| CCCCCC [hexane] + CCCC[P+](CC)(CCCC)CCCC.CCOP(=O)([O-])OCC | 3.4 ± 0.23 | 3.33 ± 0.23 | 3.26 ± 0.22 | 3.21 ± 0.22 | 3.15 ± 0.21 |
| CO [methanol] + CCCC[P+](CC)(CCCC)CCCC.CCOP(=O)([O-])OCC |  | 0.022 | 0.025 | 0.028 | 0.03 |
| CC1CCCCC1 [methylcyclohexane] + CCCC[P+](CC)(CCCC)CCCC.CCOP(=O)([O-])OCC | 2.62 ± 0.18 | 2.57 ± 0.17 | 2.52 ± 0.17 | 2.48 ± 0.17 | 2.44 ± 0.17 |
